Reference: patent US12606518B2, “Crystalline form of L-serine and process of preparing same” (ASTROGEN, INC., priority 2024, dated 2026)

Experiments:
[1] = Thermal stability test (storage at 40° C./75% RH for 8 weeks; HPLC content, visual discoloration, XRD); format: physicochemical; settings: for L-serine content from 0 week: before storage at 40° C./75% RH; for L-serine content from 0 week / L-serine content after 8 weeks: HPLC; for L-serine content after 8 weeks / Change in Crystal / Discoloration: after 8 weeks at 40° C./75% RH; for Change in Crystal: XRD; for Discoloration: visual
Description: After 8 weeks, each sample was taken out and the content was analyzed using high-performance liquid chromatography (HPLC), and the presence of discoloration was visually confirmed as shown in FIG. 13. High-Performance Liquid Chromatography Conditions • Equipment: Waters Alliance e2695 • Column: […] 100, 150 mm×4.6 mm×5 μm • Column temperature: 30° C. • Flow rate: 1.0 mL/min • Detection: 210 nm, UV • Injection volume: 10 μL • Total analysis time: 40 mins • Mobile phase: […]

[2] = Pharmacokinetic comparison after single oral administration; settings: 400 mg/kg oral once
[3] = Hygroscopicity test by dynamic vapor absorption (DVS); settings: 25° C., 2-98% relative humidity
[4] = Saturated solubility in purified water; format: physicochemical; settings: on first addition of purified water
Description: Then, 5 mL (or 10 mL) of this solution is taken, and placed into a 50 mL volumetric flask, purified water is filled to the mark and used as a test solution. • f. The test solution is analyzed according to HPLC operating conditions for the test of L-serine content.
b. The resulting solution is left at room temperature for 5 minutes and then vigorously mixed using a vortexer for 30 seconds.
c. The process b is repeated 6 times (about 30 minutes) and then the resultant is left at room temperature until the floating materials are settled.
d. The supernatant of the solution is placed into a 2.0 mL eppendorf tube and is subject to perform centrifugation using a centrifuge at 23° C. and 4,000 rpm for 20 minutes.
e. 1 mL of the supernatant of the solution is taken and placed into a 100 mL volumetric flask, and purified water is filled to the mark. Then, 5 mL (or 10 mL) of this solution is taken and placed into a 50 mL volumetric flask, purified water is filled to the mark, and used as a test solution.
f. The test solution is analyzed according to HPLC operating conditions for the test of L-serine content.

[5] = mice, n=5, after baseline correction, 400 mg/kg

Row | L-serine content from 0 week [1] [% →] | L-serine content after 8 weeks [1] [%] | Change in Crystal [1] | Discoloration [1] | AUC0-12 [2, 5] [µg·h/mL] | AUC0-inf [2, 5] [µg·h/mL] | CI/F [2, 5] | Cmax [2, 5] [µg/mL] | MRT0-inf [2, 5] [h] | Tmax [2, 5] [h] | t1/2 [2, 5] [h] | relative humidity at which moisture absorption started [3] | Cmax ([2]; mouse, blood, po, 400 mg/kg, Cmax, mice, n=5, after baseline correction) [µg/mL] | MRT inf ([2]; mouse, blood, po, 400 mg/kg, MRT0-inf, mice, n=5, after baseline correction) [h] | Tmax ([2]; mouse, blood, po, 400 mg/kg, Tmax, mice, n=5, after baseline correction) [h] | half-life ([2]; mouse, blood, po, 400 mg/kg, t1/2, mice, n=5, after baseline correction) [h] | difference in maximum blood concentration (Cmax) compared to amorphous form and type A crystalline form ([2]; mice) | increase of AUC0-12 compared to amorphous form and type A crystalline form of L-serine ([2]; mice) [times] | Remark (hardening phenomenon during dissolution) [4] | SMILES
1 | 99.1 | 93.7 | retained | change to off- | 165.81 ± 40.99 | 177.36 ± 39.9 | 3.19 ± 0.67 (mg/kg)/(μg/mL)/h | 77.69 ± 8.49 | 3.44 ± 1.49 | 0.50 | 2.56 ± 0.76 | around 70% | – | – | – | – | – | – | – | N[C@@H](CO)C(=O)O [Comparative Example 2, L-serine]
2 | 99.0 | 90.4 | change in part | change to off- | 100.53 ± 20.15 | 121.45 ± 17.20 | 3.35 ± 0.43 (mg/kg)/(μg/mL)/h | – | – | – | – | 40% | 67.5 ± 25.9 | 5.11 ± 0.8 | 0.25 | 4.15 ± 0.99 | – | – | – | N[C@@H](CO)C(=O)O [Comparative Example 1, L-serine]
3 | 99.3 | 99.2 | retained | no change | 248.89 ± 37.34 | 296.22 ± 69.63 | 2.11 ± 0.49 (mg/kg)/(μg/mL)/h | 75.48 ± 10.70 | 5.29 ± 2.10 | 0.50 | 3.56 ± 1.36 | around 80% | – | – | – | – | no significant difference | ≥ 2 | The procedure went smoothly | N[C@@H](CO)C(=O)O [Example 3, L-serine]
